Assay: xn = mol fraction of the nth substance listed
Details: Liquid, Other PVT measurement

CCCCCCCCCCCCCCCC [hexadecane] + O=C=O
mass density [kg/m3]
Details | 303.2 K | 313.2 K | 333.2 K | 353.2 K | 373.2 K | 393.2 K | 413.2 K | 433.2 K | 453.2 K | 473.2 K
10000 kPa, x2 = 0.2555 | 780.45 | 773.23 | 758.92 | 744.43 | 729.96 | 715.39 | 700.19 | 685.46 | 670.23 | 654.67
10000 kPa, x2 = 0.3703 | – | 778.18 | 759.26 | 746.79 | 731.25 | 715.75 | 698.68 | 681.51 | 664.54 | 647.28
20000 kPa, x2 = 0.2555 | 787.34 | 780.1 | 766.68 | 753 | 739.28 | 725.96 | 712.05 | 698.1 | 684 | 670.22
20000 kPa, x2 = 0.3703 | 793.48 | 785.88 | 771.19 | 756.53 | 742.07 | 727.42 | 712.39 | 697.06 | 681.26 | 665.86
30000 kPa, x2 = 0.2555 | 794.56 | 787.59 | 774.7 | 761.96 | 749.11 | 736.15 | 723.64 | 710.65 | 697.79 | 684.48
30000 kPa, x2 = 0.3703 | 801.32 | 793.73 | 780.08 | 766.24 | 752.26 | 738.82 | 725.13 | 711.36 | 697.06 | 683.13
30000 kPa, x2 = 0.7348 | 839.16 | 828.9 | 807.53 | 785.71 | 763.15 | 741.75 | 718.23 | 696.05 | 671.94 | 647.71
30000 kPa, x2 = 0.8645 | 872.71 | 857.83 | 827.32 | 793.96 | 758.29 | 725.26 | 688.46 | 649.67 | 613.21 | 578.59
40000 kPa, x2 = 0.2555 | 800.47 | 793.9 | 781.61 | 769.42 | 757.25 | 745.02 | 732.84 | 721.13 | 708.66 | 696.75
40000 kPa, x2 = 0.3703 | 807.74 | 800.81 | 787.53 | 774.17 | 761.32 | 748.53 | 735.68 | 723.06 | 709.8 | 697.04
40000 kPa, x2 = 0.7348 | 848.5 | 839.65 | 821.38 | 800.32 | 779.76 | 758.8 | 738 | 717.02 | 695.98 | 675.69
40000 kPa, x2 = 0.8645 | 885.49 | 870.69 | 840.65 | 812.52 | 785.33 | 757.98 | 729.63 | 702.92 | 673.61 | 644.14
50000 kPa, x2 = 0.2555 | 807.2 | 800.32 | 788.15 | 776.26 | 764.83 | 753.11 | 741.57 | 730.38 | 718.53 | 707.53
50000 kPa, x2 = 0.3703 | 814.58 | 807.06 | 794.36 | 782.12 | 769.45 | 756.96 | 744.66 | 732.8 | 720.85 | 708.83
50000 kPa, x2 = 0.7348 | 860.91 | 850.12 | 831.42 | 812.92 | 793.19 | 773.38 | 755.78 | 736.34 | 717.38 | 698.15
50000 kPa, x2 = 0.8645 | 900.22 | 885.44 | 859.09 | 833.73 | 810.58 | 783.06 | 759.09 | 735.07 | 709.83 | 685.57

— the NIST ThermoML archive (doi:10.1021/acs.jced.9b00078)
